ChEMBL document CHEMBL5523719, “Structure-activity relationship study of new carbazole sulfonamide derivatives as anticancer agents with dual-target mechanism” (Eur J Med Chem, 2024)
Activity calls are given as the source filed them. No cut-off for these calls is given here.

Tests used:
[1] = tested on: HMEC-1; experiment: Anti-migration activity in human HMEC-1 cells assessed as inhibition of cell migration at 5 nM measured after 48 hrs by Scratching assay; assay type: functional, cell-based
[2] = target: DNA topoisomerase 2-alpha (Homo sapiens) (UniProt P11388); experiment: Inhibition of human DNA topoisomerase 2 assessed as relaxation of supercoiled pBR322 DNA as substrate at 200 uM incubated for 30 mins by gel staining based electrophoresis analysis
[3] = tested on: MDA-MB-231; experiment: Antiproliferation activity against human MDA-MB-231 cells measured after 72 hrs incubation by MTT assay; assay type: functional, cell-based; conditions: MDA-MB-231, 72 h
[4] = tested on: MCF7; experiment: Induction of apoptosis in human MCF7 cells assessed as necrotic cells at 6.25 nM measured after 48 hrs by AnnexinV/PI double staining assays (reference value: 0.89%); assay type: functional
[5] = tested on: MCF7; experiment: Induction of cell cycle arrest in human MCF7 cells assessed as accumulation of cells at G0/G1 phase at 500 nM measured after 24 hrs by flow cytometry (reference value: 61.73%); assay type: functional
[6] = tested on: MCF7; experiment: Induction of apoptosis in human MCF7 cells assessed as necrotic cells at 25 nM measured after 48 hrs by AnnexinV/PI double staining assays (reference value: 0.89%); assay type: functional
[7] = tested on: MCF7; experiment: Induction of cell cycle arrest in human MCF7 cells assessed as accumulation of cells at G0/G1 phase at 4 nM measured after 24 hrs by flow cytometry (reference value: 61.73%); assay type: functional
[8] = tested on: HMEC-1; experiment: Anti-proliferative activity against human HMEC-1 cells measured after 48 hrs; assay type: functional, cell-based; conditions: HMEC-1, 48 h
[9] = target: T1, DNA topoisomerase 1 (Homo sapiens) (UniProt P11387); experiment: Inhibition of human DNA topoisomerase 1 assessed as relaxation of supercoiled pBR322 DNA as substrate incubated for 30 mins by gel staining based electrophoresis analysis; conditions: dose 20-200 µM
T1 sequence (whole entry): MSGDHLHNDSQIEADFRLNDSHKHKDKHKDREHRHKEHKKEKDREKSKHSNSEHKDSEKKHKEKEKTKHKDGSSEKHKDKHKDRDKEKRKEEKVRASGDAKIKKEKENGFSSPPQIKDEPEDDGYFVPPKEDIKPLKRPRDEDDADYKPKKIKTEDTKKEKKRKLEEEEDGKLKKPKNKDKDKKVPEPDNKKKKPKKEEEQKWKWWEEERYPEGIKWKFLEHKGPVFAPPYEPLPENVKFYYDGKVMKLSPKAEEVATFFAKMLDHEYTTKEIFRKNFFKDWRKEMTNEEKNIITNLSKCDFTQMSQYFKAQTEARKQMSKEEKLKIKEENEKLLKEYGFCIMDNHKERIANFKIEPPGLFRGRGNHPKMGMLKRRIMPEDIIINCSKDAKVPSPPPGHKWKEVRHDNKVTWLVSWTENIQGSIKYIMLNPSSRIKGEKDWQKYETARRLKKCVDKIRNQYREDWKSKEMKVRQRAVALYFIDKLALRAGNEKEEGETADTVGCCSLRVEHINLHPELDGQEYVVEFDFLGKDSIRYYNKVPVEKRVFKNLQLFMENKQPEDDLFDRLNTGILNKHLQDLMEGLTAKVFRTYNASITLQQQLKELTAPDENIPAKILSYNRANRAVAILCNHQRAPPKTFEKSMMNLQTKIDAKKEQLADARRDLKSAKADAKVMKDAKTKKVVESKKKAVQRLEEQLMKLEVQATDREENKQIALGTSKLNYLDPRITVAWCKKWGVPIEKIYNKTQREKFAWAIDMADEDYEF

[10] = tested on: KB; experiment: Antiproliferation activity against human KB cells measured after 72 hrs incubation by MTT assay; assay type: functional, cell-based
[11] = tested on: MCF7; experiment: Induction of cell cycle arrest in human MCF7 cells assessed as accumulation of cells at G2/M phase at 25 nM measured after 24 hrs by flow cytometry (reference value: 22.84%); assay type: functional
[12] = tested on: L02; experiment: Antiproliferation activity against human L02 cells measured after 72 hrs incubation by MTT assay; assay type: functional, cell-based; conditions: L02, 72 h

Chain of DNA topoisomerase 2-alpha (Homo sapiens) (P11388 whole entry): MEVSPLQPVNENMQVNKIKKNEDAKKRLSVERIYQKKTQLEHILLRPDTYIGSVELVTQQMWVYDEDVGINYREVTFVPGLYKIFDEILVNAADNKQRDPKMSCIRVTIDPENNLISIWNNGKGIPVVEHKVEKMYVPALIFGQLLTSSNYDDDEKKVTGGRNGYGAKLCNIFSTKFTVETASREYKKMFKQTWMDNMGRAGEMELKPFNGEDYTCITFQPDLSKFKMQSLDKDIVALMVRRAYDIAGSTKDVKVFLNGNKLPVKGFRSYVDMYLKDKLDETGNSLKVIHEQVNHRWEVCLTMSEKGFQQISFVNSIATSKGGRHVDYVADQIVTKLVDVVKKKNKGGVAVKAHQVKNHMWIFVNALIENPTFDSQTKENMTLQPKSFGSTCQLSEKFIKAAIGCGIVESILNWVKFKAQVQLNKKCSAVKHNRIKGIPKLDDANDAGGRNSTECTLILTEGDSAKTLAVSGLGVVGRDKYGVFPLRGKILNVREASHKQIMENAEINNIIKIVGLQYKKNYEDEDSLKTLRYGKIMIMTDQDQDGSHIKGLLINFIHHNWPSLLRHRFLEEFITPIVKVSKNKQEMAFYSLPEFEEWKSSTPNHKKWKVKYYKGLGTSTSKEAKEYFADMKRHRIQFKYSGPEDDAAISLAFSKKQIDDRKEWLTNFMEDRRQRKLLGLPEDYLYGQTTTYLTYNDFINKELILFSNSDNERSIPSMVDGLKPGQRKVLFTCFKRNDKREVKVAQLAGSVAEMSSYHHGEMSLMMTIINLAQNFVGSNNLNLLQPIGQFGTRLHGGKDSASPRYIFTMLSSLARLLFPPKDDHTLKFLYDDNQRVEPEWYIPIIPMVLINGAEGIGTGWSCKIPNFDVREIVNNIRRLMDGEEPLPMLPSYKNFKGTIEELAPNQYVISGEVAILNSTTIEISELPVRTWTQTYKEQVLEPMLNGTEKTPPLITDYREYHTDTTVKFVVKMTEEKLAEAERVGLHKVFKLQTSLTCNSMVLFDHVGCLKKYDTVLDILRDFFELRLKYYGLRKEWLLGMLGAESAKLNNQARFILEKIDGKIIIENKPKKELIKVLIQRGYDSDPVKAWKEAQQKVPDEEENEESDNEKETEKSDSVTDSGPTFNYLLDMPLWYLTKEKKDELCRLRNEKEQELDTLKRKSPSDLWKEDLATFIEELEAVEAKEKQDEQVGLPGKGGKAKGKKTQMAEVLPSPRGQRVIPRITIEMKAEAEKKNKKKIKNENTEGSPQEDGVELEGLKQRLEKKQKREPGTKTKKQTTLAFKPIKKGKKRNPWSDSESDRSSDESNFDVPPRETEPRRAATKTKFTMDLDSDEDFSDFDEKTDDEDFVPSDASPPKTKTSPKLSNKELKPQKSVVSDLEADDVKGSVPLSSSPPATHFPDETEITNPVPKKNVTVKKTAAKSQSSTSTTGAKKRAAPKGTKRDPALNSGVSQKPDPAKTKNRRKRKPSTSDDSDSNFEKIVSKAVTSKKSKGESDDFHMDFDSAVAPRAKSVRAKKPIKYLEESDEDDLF

COc1cc(NS(=O)(=O)c2ccc3c(c2)c2ccc(N)cc2n3C)c(OC)cc1Cl
inhibition [1]: Active | inhibition [2]: inactive | IC50 [3]: 0.0312 µM | Activity [4]: 0.1% | Activity [5]: 5.54% | Activity [6]: 0.51% | Activity [7]: 47.57% | IC50 [8]: 0.00642 µM | inhibition [9]: Dose-Dependent Effect | IC50 [10]: 0.00945 µM | Activity [11]: 31.9% | IC50 [12]: 0.0185 µM
